Like-named read-outs stand apart in the source and are kept apart here. Marks after values point to notes of the source that are not given here.
Experiments:
[1] = tested on: Strain Aichi of type A human influenza virus; type: in vivo; conditions: 100 mg/kg, 24 and 2 hours prior and 3 days post infection
[2] = tested on: hepatic P-450 cytochrome system; experiment: Hexenal sleep duration in mice; type: in vivo; conditions: CBF1 mice; oral 3 days, 50 µg/kg; control 25.91 ± 1.57
Procedure: Change in Hexenal sleep (HS) duration is the in vivo measurable index of hepatic P-450 cytochrome system condition.
Studies were carried out on male mice of the lines BALB/c*h75, C57B1/6, CBA, DBA/2, first generation CBF1 and BDF1 hybrides, with initial mass 18-20 g, each group including 10 mice; and on mongrel male guinea pigs with initial mass 250-300 g, each group including 24 animals. All the test compounds (from II to LII) were administered orally in drinking water and for three days at doses 50 and 500 µg/kg. Hexenal hydrochloride at a dose […] of animal mass was administered 24 hours after the last drug administration, except for line BALB/c*h75 mice, which were administered Hexenal at a dose 60 µg/kg at the same terms, and guinea pigs for which Hexenal dose was 30 µg/kg. HS duration was determined in minutes.

mongrel male rats = experiment: Hypolipidemic activity: experimental hyperlipidemia (atherogenic load); conditions: atherogenic diet, oral last four days, 50 µg/kg; for HDL-CS / LDL-CS+ VLDL-CS / Total CS / Triglycerides: blood; for Kcs: cholesterol index;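 for all read-outs here: serum drawn 18 h after the final dose from rats deprived of food over that interval, groups of 10 animals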
mongrel female rats = experiment: Hepatoprotective activity: subchronic liver lesion (hepatitis) with CCl4; type: in vivo; conditions: rats, CCl4 hepatitis
Procedure: Hepatoprotective properties of the compounds were studied on a model of subchronic liver lesion (hepatitis) with carbon quadrichloride.
70 mongrel female rats with initial body mass 190-200 g fed a standard vivarium ration, were used in experiment. Animals were divided into 7 groups (10 rats each): • Group 1 - control one; during the first four days of experiment animals were subcutaneously injected 0.2 ml vaseline oil; • Group 2 - during the first four days animals were subcutaneously injected 50% CCl4 solution in vaseline oil at a rate of 0.1 ml per 100 g body mass; • Group 3 - Legalon in a starch gel was administered orally for 8 days at a dose 30 mg/kg against the background of CCl4 administration; […] , resepectively, was administered in a way similar to group III; […] , resepectively, was administered in a way similar to group III.
The test compounds and Legalon were administered to animals 1 hour prior to CCl4 administration. 24 hours after the last administration of the drugs, animals were decapitated.
Activity of blood serum transaminases ALT and AST was assessed using the conventional Frenkel-Rightman method [Laboratory examination methods in the clinic. Ed. by Menshikov V.V. Moscow, Meditsina publishers (1969), 302 pp.].
The published method [Rodionova L.P. Modification of blood serum trigyceride level determination method. Laboratomoye delo (Laboratory Matter) (1980), No 5, pp. 297-299] was used to determine blood serum TG level.
Blood serum LP final product MDA was determined using the published method [Korobeinikova E.N. Modification of lipid peroxydation product determination in reaction with thiobarbituric acid. Laboratomoye delo (Laboratory Matter) (1989), No 7, pp. 8-10]. Concentration of TBA-active products was calculated using regression equation: C = 0.21 + 0.26D, [formula] where C - concentration of TBA-active products (in nM MDA per 1 ml of serum), D - index D535 -D580 (in optic density units).
Total hepatic lipids were extracted using the modified Folch method [Cates M. Technology of Lipidology. Moscow, Mir publishers (1975), pp. 74-76]. Quantative content of lipid fractions was assessed with thin layer chromatography method (TLC) using the system of solvents hexane:diethyl ether:acetic acid at ratio 80:20:2. Zones of individual lipid fractions were determined using 10% alcohol solution of phosphoromolyobdenic acid which following elution were spectrophotometrically analysed at 600 nm.
Hepatic MDA level was determined using the published method [Stalnaya I.D., Garishvili T.G. Malonic dialdehyde determination method using thiobarbituric acid. In: Modem methods in biochemistry. Moscow, Meditsina publishers (1977), pp. 66-69]. MDA quantity was calculated using molar extinction coefficient value of stained trimethynic complex formed by MDA with two TBA molecules: E = 1.56 × 10^5 (cm)^-1 × M^-1 [formula]

[3] = tested on: Lewis pulmonary carcinoma (LLC); experiment: Lewis pulmonary carcinoma growth; type: in vivo; conditions: mice with LLC, day 12; for Growth inhibition percent: compound in drinking water; for Tumor volume (mm^3): compound in drinking water from 24 hours after transplantation
Procedure: Experiments were carried out on male mice with initial body mass 18-20 g. Each group included 10 animals. […] Administration of compounds II, III, IX, X, XII, XIV, XV, XVI, XVII, XIX, XXII, XLVII in drinking water was commenced 24 hours following transplantation and continued till the end of experiment. Effect of the compounds on Lewis rat pulmonary carcinoma (LLC) was estimated by day 12 of experiment by change in tumor volume expressed in mm^3.

hydroxyl radical = experiment: Hydroxyl radical formation in the Fenton reagent (chemiluminescence); type: biochemical
Procedure: Active oxygen forms (AOF) of different nature were generated in the following systems: • A. Hydroxyl radical - in the mixture of FeSO4 with H2O2 (the Fenton reagent) [Halliwell B. Superoxide-dependent formation of hydroxyl radicals in the presence of iron salts. […] Incubation medium comprised 5 mM KH2PO4 (pH 7.4); 5 mM FeSO4; 2 mM luminol. H2O2 at final concentration 5 mM was introduced into a cuvette through a dispencer following background luminescence recording of the reagents' mixture. 5 to 10 ml of the test compounds dissolved in water were at needed concentration introduced into a cuvette.
CL flash recording duration after mixing ingredients, depended on a particular process kinetics. For each system, CL light sum (mV) was determined in the control samples without preparations (I-) and in samples comprising respective concentrations of preparations (I+). To estimate CL inhibition (activation) degree, the I+/I- ratio (in relative units) was found in the studied systems.
When H2O2 was introduced into phosphate buffer comprising iron sulfate, CL flash occured which was caused by formation of predominantly hydroxyl radical in the reaction mixture.

[4] = blood serum, oral 8 days 30 mg/kg
[5] = blood serum, oral 8 days, daily dose 30.0 mg/kg

Compound: CCOC(=O)c1c(CSc2ccccc2)n(C)c2cc(Br)c(O)c(CN(C)C)c12 [Arbidol]
- MLT, days ([1]; series with Control - 2 (9.1)): 13.88*^2 days
- Survival rate in percent ([1]; series with Control - 2 (34.5)): 94.7*^2%
- Protection degree in percent ([1]; series with Control - 2): 60.2%
- MLT, days ([1]; series with control - 1 (5.76)): 9.22* days
- Survival rate in percent ([1]; series with control - 1 (16.7)): 43.4* percent
- Protection degree in percent ([1]; series with control - 1): 26.7%

Compound: Cl.O=C(O)CCCCC(=O)NCCc1c[nH]cn1 [IV, N-ADIPINYLHISTAMINE CHLOROHYDRATE]
- Hexenal sleep duration (minutes) [2]: 20.39 ± 1.59* minutes

Compound: CC(=O)NC(CC(=O)NCCc1c[nH]cn1)C(=O)O (stereo not drawn) [L, N-Acethyl-β -Aspartylhistamine]
- HDL-CS (mongrel male rats): 31,0±2,1
- LDL-CS+ VLDL-CS (mongrel male rats): 63,1±2,4*^A
- Total CS (mongrel male rats): 94,1±2,1
- Triglycerides (mongrel male rats): 141,6±12,6**^A
- Kcs (mongrel male rats): 2,03±0,09***^A

Compound: CC(=O)NC(CC(=O)O)C(=O)NCCc1c[nH]cn1 (stereo not drawn) [LI, N-Acethyl- α-Aspartylhistamine]
- HDL-CS (mongrel male rats): 39,8±1,6**^A
- LDL-CS+ VLDL-CS (mongrel male rats): 59,3±3,5*^A
- Total CS (mongrel male rats): 99,1±4,5
- Triglycerides (mongrel male rats): 132,1±17,4**^A
- Kcs (mongrel male rats): 1,49±0,07***^A

Compound: O=C1CC[C@@H](C(=O)NCCc2c[nH]cn2)N1 [LII, Pyroglutamylhistamine]
- Hexenal sleep duration [2]: 21.14 ± 1.39 min

Compound: COc1cc(C2Oc3cc([C@H]4Oc5cc(O)cc(O)c5C(=O)[C@@H]4O)ccc3OC2CO)ccc1O (some centres unmarked) [Legalon, reference compound]
- Cholesterol level, mg/100 ml VLDL-CS (mongrel female rats; blood serum, TG/5, oral 8 days 30 mg/kg): 15.7 ± 1.1 p<0.05 mg/100 ml
- Cholesterol level, mg/100 ml LDL-CS (mongrel female rats; blood serum, calculated by formula, oral 8 days 30 mg/kg): 20.1 ± 1.1 p<0.01 mg/100 ml
- Cholesterol level, mg/100 ml HDL-CS (mongrel female rats; [4]): 54.8 ± 2.5 mg/100 ml
- Cholesterol level, mg/100 ml total-CS (mongrel female rats; [4]): 90.9 ± 3.4 mg/100 ml
- TG level, mg/100ml (mongrel female rats; [4]): 78.0 ± 6.2 p<0.05 mg/100ml
- ALT, nM/dl (mongrel female rats; [5]): 622 ± 36 nM/dl
- AST, nM/dl (mongrel female rats; [5]): 531 ± 22 nM/dl
- Lipid composition (in percent of total lipids) FCS (mongrel female rats; liver, oral 8 days 30 mg/kg): 15.0 ± 0.4 p<0.01% of total lipids
- Lipid composition (in percent of total lipids) Phospholipids (mongrel female rats; liver, oral 8 days 30 mg/kg): 19.7 ± 1.1% of total lipids
- Lipid composition (in percent of total lipids) Triglycerides (mongrel female rats; liver, oral 8 days 30 mg/kg): 44.1 ± 1.9% of total lipids
- Hepatic MDA, nM/l (mongrel female rats; 30.0 mg/kg): 4.17 ± 0.31 p<0.001 nM/l
- Serum MDA, nM/l (mongrel female rats; 30.0 mg/kg): 5.58 ± 0.15 nM/l

Compound: O=C(O)CCCC(=O)NCCc1c[nH]c2ccc(OCc3ccccc3)cc12 [XIV, N-GLUTARYL-O-BENZYLSEROTONIN]
- Growth inhibition percent [3]: 68%
- Tumor volume (mm^3) [3]: 779 ± 94** mm^3

Compound: O=C(O)CCCC(=O)NCCN1CCOCC1 [XIX, N-GLUTARYL-4-(2-AMINOETHYL)MORPHOLINE]
- Chemiluminiscence intensity (mV) + σn-1 (hydroxyl radical; 1 µM, control of the series as in the table): 49089 ± 269 mV
- relative effect: I+/I- (hydroxyl radical; 0.01 mM): 0.77
- Chemiluminiscence intensity (mV) + σn-1 (hydroxyl radical; 0.01 mM, control of the series as in the table): 3846 ± 184 mV
- relative effect: I+/I- (hydroxyl radical; 0.1 mM): 0.68
- Chemiluminiscence intensity (mV) + σn-1 (hydroxyl radical; 0.1 mM, control of the series as in the table): 3377 ± 222 mV
- relative effect: I+/I- (hydroxyl radical; 1 mM): 0.13
- Chemiluminiscence intensity (mV) + σn-1 (hydroxyl radical; 1 mM, control of the series 7839 ± 171, 1120 ± 163, 4974 ± 283 or 1332 ± 172): 626 ± 56 mV
- Growth inhibition percent [3]: 28%
- Tumor volume (mm^3) [3]: 994 ± 173 mm^3
